Several values for one entry are separate records, joined by “and”; a condition that tells them apart may be missing. Equal values may be shown once.
Legend:
[1] = ABTS radical cation scavenging assay; parameters: key to ABTS^•+ Scavenging Activity, TEAC: TEAC: ratio of compound slope to Trolox slope (Trolox equivalents); conditions: 1 h incubation; for IC50: 50% reduction of ABTS radical cation; for ABTS^•+ Scavenging Activity, TEAC: Trolox equivalent, n.a. = not active
Experimental: In the ABTS assay, the dark-green ABTS cation-radical (ABTS^•+) is quenched by interaction with AOs. The consequent decrease in absorbance is followed spectrophotometrically per the previously described method.
Radical scavenging activity of the compounds was assessed using the ABTS radical cation (ABTS^•+) decolorization assay with some modifications. ABTS (2,2′-azinobis-(3-ethylbenzothiazoline-6-sulfonic acid) was purchased from Tokyo Chemical Industry Co., Ltd. (Tokyo, Japan); potassium persulfate (dipotassium peroxodisulfate), Trolox (6-hydroxy-2,5,7,8-tetramethylchroman-2-carboxylic acid), and HPLC-grade ethanol and DMSO were obtained from Sigma-Aldrich (Saint Louis, MO, USA). Aqueous solutions were prepared using deionized water. All tested compounds were dissolved in DMSO.
The solution of cation radical ABTS^•+ was produced by incubation of an aqueous solution of 7 mM ABTS and 2.45 mM potassium persulfate solution in equal quantities for 12–16 h at room temperature in the dark. Radical scavenging capacity of the compounds was analyzed by mixing 10 μL of compound with 240 μL of ABTS^•+ working solution in ethanol (100 μM final concentration). The reaction was monitored for an hour at 30 °C with an interval of 10 min. Data are given for 1 h of incubation of compounds with ABTS^•+. The reduction in absorbance was measured spectrophotometrically at 734 nm using an xMark microplate UV/VIS spectrophotometer (Bio-Rad, Hercules, CA, USA). Ethanol blanks were run in each assay. Values were obtained from five replicates of each sample and three independent experiments.
The standard AO Trolox was used as a reference compound. AO capacity as Trolox equivalent (TEAC) values was determined as the ratio between the slopes obtained from the linear correlation of the ABTS radical absorbance with the concentrations of tested compounds and Trolox. Ascorbic acid was used as a positive control. […]. The compounds were tested in the concentration range of 0.5–100 µM.

[2] = in vitro; format: cell-based; conditions: mouse
Experimental: […]. Accordingly, in the present work, we paid special attention to the study of the cytotoxic activity of compounds on primary cultures of mouse hepatocytes using standard MTT methodology.
The cytotoxicity of the compounds was evaluated using a primary culture of mouse hepatocytes isolated at the Center for Biotechnology and Bioengineering, Ural Federal University, Ekaterinburg, Russia, according to the standard method. Cells were seeded in 96-well plates in the inoculum dose of 1 × 10^4 cells/mL and cultured for 24 h in Dulbecco’s Modified Eagle Medium (DMEM), with 1% (w/v) glutamine in the presence of 10% (v/v) fetal bovine serum and gentamicin (50 mg/L) at 37 °C, with a humidified atmosphere of 5% (v/v) CO2. Cell viability was assessed using the standard MTT assay. The compounds were dissolved in DMSO and then in a nutrient medium, after which they were added to the wells with cells at final concentrations of 10^−7, 10^−6, 10^−5, and 10^−4 M. Hepatocytes were exposed to test compounds for 24 h at 37 °C, 95% relative humidity and 5% (v/v) CO2 atmosphere. After incubation, the medium was replaced with 100 μL of fresh medium containing MTT (0.5 mg/mL). The plates were then incubated at 37°C in a CO2 incubator for 2 h. Then the medium with MTT was removed and DMSO was added to dissolve the formazan crystals.
The results of the MTT assay were evaluated on a Tecan Infinite M200 PRO (Tecan Austria GmbH, Grödig, Austria) plate spectrophotometer at 570 nm by comparing the optical density of a formazan solution in the assay and control wells. The cell viability was expressed as the percentage of untreated control. The results were obtained from three independent experiments performed in six replicates. The IC50 (μM) values were calculated by the AAT Bioquest-calculator: (https://www.aatbio.com/tools/ic50-calculator, accessed on 1 December 2022) and expressed as a mean ± standard error of the mean (SEM). Statistical analysis was carried out using Microsoft Excel 2007 (Microsoft Corporation, Redmond, WA, USA) and Statistica 2009 (Tulsa, OK, USA) programs.

[3] = target: β-amyloid (1–42) (Aβ42) (Homo sapiens, UniProt P05067); experiment: Inhibition of Aβ42 self-aggregation (thioflavin T); format: biochemical; conditions: Aβ42 50 µM; compound 100 µM; 24 h, 37 °C; thioflavin T; read-out: Inhibition of Aβ42 Self-Aggregation
β-amyloid (1–42) (Aβ42), sequence (P05067 672-713 limits assumed): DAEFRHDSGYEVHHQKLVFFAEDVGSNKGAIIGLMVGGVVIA
Experimental: The inhibitory activity of tested hybrids against the self-aggregation of Aβ42 was determined in vitro using the thioflavin T (ThT) fluorimetric assay. According to [84], the ThT test is ideal for preliminary screening of inhibitors of Aβ42 self-aggregation, as it enables the quantitative testing of large numbers of compounds within a relatively short time.
The influence of the inhibitory effect of the test compounds toward Aβ42 self-aggregation was determined using the thioflavin T (ThT) fluorescence method with minor modifications. This assay is based on a specific interaction between the fluorescent dye thioflavin T that binds to the β-sheets of assembled amyloid fibrils leading to a significant increase in fluorescence signal. Therefore, the decrease in ThT fluorescence correlates with the ability of the studied compounds to inhibit the formation of amyloid aggregates.
One mg of lyophilized HFIP-pretreated Aβ42 from BACHEM (Bubendorf, Switzerland) was dissolved in DMSO to obtain a stable initial solution ([Aβ42] = 500 μM); then it was aliquoted and stored at −20 °C.
For the measurement of Aβ42 self-aggregation and amyloid fibril inhibition studies by the tested compounds, aliquots of 500 μM Aβ42 stock solution were diluted in 215 mM Na-phosphate buffer pH = 8.0 to a final concentration of 50 μM Aβ42. Then the samples were incubated for 24 h at 37 °C without stirring in the absence (base level of Aβ42 self-aggregation, control) or presence of the test compounds. Myricetin and propidium iodide were used as reference compounds (positive controls). All compounds were used in a concentration of 100 µM. To quantify Aβ42 fibril formation, after incubation, 5 μM ThT in 50 mM glycine-NaOH buffer pH 8.5 was added to the solutions to a final concentration of 4 μM ThT and the fluorescence was measured at 440 nm (excitation) and 485 nm (emission). Analyses were performed with a FLUOStar Optima microplate reader (LabTech, Ortenberg, Germany). The blanks consisted of 215 mM Na-phosphate buffer, pH = 8.0, 20% (v/v) DMSO or test compounds, respectively. Each assay was run in triplicate.

SMILES	IC50 [1] [µM]	ABTS^•+ Scavenging Activity, TEAC [1]	IC50 at 24 h [2] [µM]	inhibition at 100 µM [3] [%]
O=C(NCCCCCCNc1c2c(nc3ccccc13)CCCC2)c1ccccc1O [5b]	21.3 ± 1.5	0.93 and 0.90 ± 0.05	4.89 ± 0.08	41.5 ± 2.9
O=C(NCCCCCCNc1c2c(nc3ccccc13)CCCC2)c1cc(F)c(F)cc1O [7b]	> 200	0.030 ± 0.001	15.16 ± 0.09	24.1 ± 2.1
O=C(NCCCCCCCCNc1c2c(nc3ccccc13)CCCC2)c1cc(F)c(F)cc1O [7c]	> 200	0.040 ± 0.002	–	37.2 ± 2.9
Oc1ccccc1/C=N/CCCCCCCCNc1c2c(nc3ccccc13)CCCC2 [10c]	34.2 ± 1.8	0.42 ± 0.04	5.87 ± 0.14	80.1 ± 5.6
